Experimental data as given in PMC4564001 (Bioorganic & medicinal chemistry letters, 2015).

Legend:
[1] = Aqueous solubility; format: physicochemical; conditions: qualitative statement
[2] = format: in vitro ADME, human; conditions: 1 μM, 37°C, LC-MS/MS
[3] = format: in vivo; conditions: DPS vehicle
[4] = system: neutrophil influx; assay: Ozone rat model of pulmonary inflammation; format: in vivo, Sprague-Dawley rats
[5] = format: in vitro ADME; conditions: data not shown

Compound	Aqueous solubility [1]	Human Plasma stability (% remaining) 1 hr [2] [% remaining]	Human Plasma stability (% remaining) 4 hr [2] [% remaining]	Human Plasma stability (% remaining) 24 hr [2] [% remaining]	Rat PK AUC @ 1 mg/kg IV [3] [µM·h]	Reduction of neutrophil influx (BALF) ([4]; single IV dose 1 mg/kg at t = 0, 1 ppm ozone 4 hours, BALF at 24 hours)	Stability in rat plasma (6 vs 7) [5]	Effectiveness at reducing neutrophil influx relative to 6 ([4]; single IV dose 1 mg/kg, ozone model, side-by-side with 6)
CN(Cc1ccc(B(O)O)cn1)c1ccc(C(=O)Nc2ccc(F)cc2)cn1 [Compound 22]	improved aqueous solubility	–	–	–	–	–	–	–
CN(Cc1ccc(B(O)O)cn1)c1ncc(C(=O)Nc2ccc(F)cc2)cn1 [Compound 23]	improved aqueous solubility	–	–	–	–	–	–	–
O=C(Nc1ccc(F)cc1)c1ccc(SCc2cc(OC(F)(F)F)ccc2B(O)O)nc1 [Compound 6, 6-(2-boronic acid-5-trifluoromethoxy-benzylsulfanyl)-N-(4-fluoro-phenyl)-nicotinamide]	–	62	34	2	5.40	modest reduction in neutrophil influx	no significant difference	–
O=C(Nc1ccc(F)cc1)c1cnc(N(Cc2ccccc2)Cc2ccc(B(O)O)cn2)nc1 [Compound 7, (2-{(Benzyl)[(5-boronic acid-2-pyridyl)methyl]amino}-5-pyrimidinyl)(4-fluorophenylamino)formaldehyde]	–	90	71	62	–	–	no significant difference	twice as effective
